The values below come from US3965109A, “Certain aryl amino pyridines” (priority 1971, dated 1976).

The structures appear in SMILES notation.

Series [1] concerns Phytophthora infestans (tomato). Type of series: in vivo. The conditions noted are these: 100 ppm spray and drench; 3 days.
Series [2] deals with Plasmopara viticola (vine). Nature of the series: Fungicidal test against foliar disease C (foliage spray plus soil drench). The series is classed as in vivo. As to conditions: 100 ppm spray and drench; 10 days.
Series [3] relates to Piricularia oryzae (rice). Type of series: in vivo. As to conditions: 100 ppm spray and drench; 7 days.
The next series concerns Lettuce. Nature of the series: Herbicidal test, pre- and post-emergence. Type of series: in vivo. The conditions noted are these: 10 kg/ha; scale 0 to 3 (complete kill).
The subject of another series is Tomato. Nature of the series: Herbicidal test, pre- and post-emergence. The series is classed as in vivo. As to conditions: 10 kg/ha; scale 0 to 3 (complete kill).
A further series concerns Wheat. The series is described as follows: Herbicidal test, pre- and post-emergence. The conditions noted are these: 10 kg/ha; scale 0 to 3 (complete kill). Type of series: in vivo.
The test system of another series is Maize. Nature of the series: Herbicidal test, pre- and post-emergence. Type of series: in vivo. The conditions noted are these: 10 kg/ha; scale 0 to 3 (complete kill).
Series [4] concerns Puccinia recondita (wheat). The series is described as follows: Fungicidal test against foliar disease A (foliage spray plus soil drench). The conditions noted are these: 100 ppm spray and drench; 10 days. Type of series: in vivo.
A further series relates to Uncinula necator (vine). Nature of the series: Fungicidal test against foliar disease D (foliage spray plus soil drench). Type of series: in vivo. The conditions noted are these: 100 ppm spray and drench; 10 days.
For series [5], the system named is Tetranychus telarius (red spider mites, adults). The series is described as follows: Pest toxicity test. As to conditions: 0.1% by weight; French bean; 3 days. The series is classed as in vivo.
In series [6] the test system is Tetranychus telarius (red spider mites, eggs). The series is described as follows: Pest toxicity test. The series is classed as in vivo. The conditions noted are these: 0.1% by weight; French bean; 3 days.
For another series, the system named is Aphis fabae. The series is described as follows: Pest toxicity test. Type of series: in vivo. As to conditions: 0.1% by weight; broad bean; 2 days.
The test system of a further series is Megoura viceae. The series is described as follows: Pest toxicity test. Type of series: in vivo. The conditions noted are these: 0.1% by weight; broad bean; 2 days.
In series [7] the test system is Aedes aegypti (mosquito larvae). The series is described as follows: Pest toxicity test. Type of series: in vivo. As to conditions: for Mortality grading (kill): 0.01% by weight, water, 1 day.
Series [8] has as its system Aedes aegypti (mosquito adults). The series is described as follows: Pest toxicity test. Type of series: in vivo. The conditions noted are these: 0.01% by weight; plywood; 1 day.
The subject of series [9] is Pieris brassicae (cabbage white caterpillars). Nature of the series: Pest toxicity test. Type of series: in vivo. The conditions noted are these: 0.1% by weight, 2 days.
In series [10] the test system is Plutella maculipennis (diamond back moth larvae). Nature of the series: Pest toxicity test. The series is classed as in vivo.
In series [11] the test system is Phaedon cochleariae (mustard beetles). Nature of the series: Pest toxicity test. Type of series: in vivo.
The test system of series [12] is Agriolimax reticulatus (slugs). The series is described as follows: Molluscicidal activity test. Type of series: in vivo, Agriolimax reticulatus (Mull). As to conditions: pellet with 4% by weight; 6 days; 10°C. The procedure:
A weighed sample of the compound under test was dissolved in 0.5 c.c. of an ethanol and acetone mixture 50:50 v/v). The solution was diluted with 0.5 cc water and poured onto a calf feeding pellet in a glass Petri dish. The pellet was then air dried for 24 hours. The weight of compound used was chosen so that the dried pellet contained 4% by weight of the active ingredient. Two replicates each consisting of a plastic Petri dish containing a pellet, 2 slugs, and a moistened filter paper to maintain a high relative humidity were used in each test. The dishes were left in a cold room (10°C.) After 6 days the kill was assessed.
The slugs used were Agriolimax reticulatus (Mull), and they had been starved for 24 hours before the commencement of the tests.

The subject of another series is Sugar beet. Nature of the series: Further herbicidal test, various rates. The series is classed as in vivo. The conditions noted are these: scale 0 to 5 (complete kill).
The test system of another series is Kale. Nature of the series: Further herbicidal test, various rates. Type of series: in vivo. The conditions noted are these: scale 0 to 5 (complete kill).
The test system of another series is Carrot. The series is described as follows: Further herbicidal test, various rates. Type of series: in vivo. As to conditions: scale 0 to 5 (complete kill).
The subject of another series is Pea. The series is described as follows: Further herbicidal test, various rates. The series is classed as in vivo. As to conditions: scale 0 to 5 (complete kill).
The next series has as its system Onion. The series is described as follows: Further herbicidal test, various rates. Type of series: in vivo. The conditions noted are these: scale 0 to 5 (complete kill).
For another series, the system named is Barley. The series is described as follows: Further herbicidal test, various rates. Type of series: in vivo. The conditions noted are these: scale 0 to 5 (complete kill).
A further series has as its system Rice. Nature of the series: Further herbicidal test, various rates. Type of series: in vivo. The conditions noted are these: scale 0 to 5 (complete kill).
Another series deals with Oat. Nature of the series: Further herbicidal test, various rates. As to conditions: scale 0 to 5 (complete kill). Type of series: in vivo.
The test system of series [13] is Musca domestica (houseflies). Nature of the series: Pest toxicity test, contact test. Type of series: in vivo. As to conditions: 0.1% by weight; milk/sugar; 2 days; flies sprayed directly.
Where [14] appears, read: 0.1% by weight, mustard/paper, 2 days.

Regarding `N#Cc1cc([N+](=O)[O-])ccc1Nc1c(Cl)c(F)nc(F)c1Cl` [Compound 26, 4(2-Cyano-4-nitroanilino)-3,5-dichloro-2,6-difluoropyridine], in series [1], the “Amount of disease grading, disease B (Table 4)” value was 3 (0 to 5). Besides, the “Amount of disease grading, disease C (Table 4)” value in series [2] is reported as 3 (0 to 5). Moreover, in series [3], the “Amount of disease grading, disease E (Table 4)” value was 0 (61 to 100). The “Damage to plants, post-emergence” value with Lettuce turned out to be 3; in the series with Tomato, 0; in the series on Maize it was 0. The “Damage to plants, pre-emergence” value with Lettuce was determined as 3; with Tomato, 3; with Wheat, 1; in the series with Maize, 0.
Take `O=[N+]([O-])c1ccc(Nc2c(F)c(F)nc(F)c2Cl)c(C(F)(F)F)c1` [Compound 32, 3-Chloro-4(4-nitro-2-trifluoromethylanilino)-2,5,6-trifluoropyridine]: in [4], the “Amount of disease grading, disease A (Table 4)” value was 3 (0 to 5). Besides, the “Amount of disease grading, disease C (Table 4)” value in series [2] is 3 (0 to 5). Further, the “Amount of disease grading, disease D (Table 4)” value in the series with Uncinula necator (vine) is reported as 3 (0 to 5). Moreover, the “Mortality grading (kill)” value in series [5] is 3 (3 represents over 90% kill); in series [6], 3 (3 represents over 90% kill); in the series with Aphis fabae, 3 (3 represents over 90% kill); in the series with Megoura viceae it was 0 (O represents less than 30% kill); in [7], 3 (3 represents over 90% kill); in series [8], 2 (2 represents 60 - 90% kill). In addition, the “Mortality grading (kill)” value was 3 (3 represents over 90% kill) in series [9], 2 (2 represents 60 - 90% kill) in series [10] (setting [14]) and 0 (O represents less than 30% kill) in series [11] (setting [14]). The “% Kill of slugs” value in series [12] came to 100%. The “Damage to plants, post-emergence” value with Lettuce is on record as 3; in the series on Tomato it was 3; with Wheat, 0; in the series on Maize it was 0; in the series with Sugar beet (1 kg/hectare), 5; in the series on Sugar beet (5 kg/hectare) it was 5. Also, the “Damage to plants, post-emergence” value worked out at 5 in the series with Kale (1 kg/hectare); 4 in the series on Kale (5 kg/hectare); 2 in the series on Carrot (1 kg/hectare); 4 in the series on Carrot (5 kg/hectare); 3 in the series on Pea (1 kg/hectare); 2 in the series on Pea (5 kg/hectare). Moreover, the “Damage to plants, post-emergence” value came out at 1 in the series with Onion (1 kg/hectare); 0 in the series with Onion (5 kg/hectare); 1 with Barley (1 kg/hectare); 1 in the series with Barley (5 kg/hectare); 0 with Rice (1 kg/hectare); 0 in the series with Rice (5 kg/hectare). Further, the results for the “Damage to plants, post-emergence” value with Oat (1 kg/hectare) and in the series with Oat (5 kg/hectare) were 1 and 0, respectively. The “Damage to plants, pre-emergence” value with Lettuce is on record as 3; in the series with Tomato, 3; in the series with Wheat, 3; with Maize, 1; in the series on Sugar beet (1 kg/hectare) it was 4; in the series on Sugar beet (5 kg/hectare) it was 5. Moreover, the “Damage to plants, pre-emergence” value with Kale (1 kg/hectare) is 4; in the series on Kale (5 kg/hectare) it was 5; in the series with Carrot (1 kg/hectare), 3; with Carrot (5 kg/hectare), 5; in the series on Pea (1 kg/hectare), 3; in the series on Pea (5 kg/hectare), 5. For the same compound, the “Damage to plants, pre-emergence” value is listed as 5 in the series with Onion (5 kg/hectare); 4 with Barley (1 kg/hectare); 4 in the series on Barley (5 kg/hectare); 4 in the series on Rice (1 kg/hectare); 5 with Rice (5 kg/hectare); 3 with Oat (1 kg/hectare). Besides, the “Damage to plants, pre-emergence” value in the series on Oat (5 kg/hectare) is recorded as 4.
Turning to `Fc1nc(F)c(Cl)c(Nc2c(Cl)cc(Cl)cc2Cl)c1Cl` [Compound 7, 3,5-Dichloro-2,6-difluoro-4(2,4,6-trichloroanilino)pyridine], in [4], the “Amount of disease grading, disease A” value is on record as 2 (6 to 25). Also, in series [1], the “Amount of disease grading, disease B” value is 0 (61 to 100). In addition, the “Amount of disease grading, disease C” value in series [2] is 0 (61 to 100). In addition, in the series on Uncinula necator (vine), the “Amount of disease grading, disease D” value was 0 (61 to 100). Moreover, in series [3], the “Amount of disease grading, disease E” value is 0 (61 to 100). In addition, in series [7] (in vivo), the “abnormal growth effects in larva of mosquitos” value is “abnormal growth effects”.
On to `Fc1nc(F)c(Cl)c(Nc2c(Cl)c(Cl)c(Cl)c(Cl)c2Cl)c1Cl` [Compound 9, 3,5-Dichloro-2,6-difluoro-4(pentachloroanilino)pyridine], for which the “Amount of disease grading, disease A” value in series [4] is recorded as 3 (0 to 5). Besides, the “Amount of disease grading, disease B” value in series [1] is 0 (61 to 100). The “Amount of disease grading, disease C” value in series [2] is 0 (61 to 100). In addition, in the series on Uncinula necator (vine), the “Amount of disease grading, disease D” value is 3 (0 to 5). The “Amount of disease grading, disease E” value in series [3] is recorded as 3 (0 to 5). The “Mortality grading (kill)” value in series [5] is on record as 3 (3 represents over 90% kill); in the series on Aphis fabae it was 0 (O represents less than 30% kill); in the series with Megoura viceae, 0 (O represents less than 30% kill); in series [7] it was 3 (3 represents over 90% kill); in [8], 0 (O represents less than 30% kill); in series [9] it was 0 (O represents less than 30% kill). Besides, the “Mortality grading (kill)” value in [10] (in vivo) is 3 (key: O represents less than 30% kill; 1 represents 30 - 49% kill; 2 represents 60 - 90% kill; 3 represents over 90% kill; C indicates a chemosterilant effect.; A indicates an antifeeding effect.); in series [11] (in vivo) it was 1 (key: O represents less than 30% kill; 1 represents 30 - 49% kill; 2 represents 60 - 90% kill; 3 represents over 90% kill; C indicates a chemosterilant effect.; A indicates an antifeeding effect.). Further, the “Mortality grading (kill), contact test” value in series [13] is 3 (3 represents over 90% kill).
